Measurements published in patent publication US20250361480A1, “REINFORCED ENGINEERED CELLULARIZED-TISSUE” (Ramot at Tel-Aviv University Ltd., priority 2023, published 2025).

How the values were obtained:
[1] = Compressive (bulk) modulus of hydrogel; type: physicochemical, porcine; settings: compression, FIG. 2E
Method: The compressive modulus measurements were performed using a Discovery HR-3 Hybrid Rheometer (TA Instruments, DE) with a 20 mm diameter parallel plate geometry and a Peltier plate to maintain the sample temperature. Bulk modulus tests were performed by compressing the samples at a fixed rate of 100 μm s^−1.
Alongside the rheological testing, the bulk mechanical properties of the hydrogel were also assessed. Samples were compressed, and the linear elastic modulus was calculated. Data are presented as mean±SD, n=3.

[2] = ninhydrin absorbance normalized to control, FIG. 2F
Method: Aliquots of hydrogel (1 mL) were taken and either reacted with SOx or used as a control. Samples were lyophilized and then immersed in a 0.05% acetic acid solution (1 mL). To this was added 2% Ninhydrin in ethanol (w/v) (1 mL). The mixture was boiled for 90 minutes. Aliquots were taken and the absorbance of the solution was recorded at 570 nm (Infinite M200 Pro; Tecan, Switzerland).
To determine the ability of SOx to react with an ECM-based hydrogel, the concentration of amine groups present in the ECM before and after exposure to the Sox was assessed. […] Data are presented as mean±SD, n=4. All values were normalized to the average value of the control group. P-values were calculated using a one-tailed, unpaired, parametric t-test assuming that all samples have the same distribution.

[3] = test system: Primary human umbilical vein endothelial cells (HUVECs); experiment: Cell viability of HUVECs in 2D culture with SOx (PrestoBlue); type: cell-based; settings: SOx concentrations lower than 0.1% in the culturing medium, 48 hours, FIG. 2C
Method: Primary human umbilical vein endothelial cells (HUVECs) (Angio-Proteomie) were maintained in Endothelial Growth Medium (EGM-2) (Lonza) supplemented with an additional 1.5% (v/v) fetal bovine serum (FBS) (Biological Industries). Daily, PrestoBlue™ Cell Viability Reagent (Invitrogen) was added and cells were incubated for a fixed time interval. The medium was then transferred to a clean, opaque tissue culture well plate and fresh medium was added to the cells. The fluorescence was measured at 560/590 nm (Infinite M200 Pro).
Cells were incubated for 48 hours in 2D culture in order to allow toxic effects to become discernable. Data are presented in FIG. 2C as mean±standard deviation (SD), n=4.

[4] = Rheological testing, shear thinning of hydrogel; type: physicochemical, porcine; settings: 37° C., FIG. 2D
Method: Rheological measurements were performed using a Discovery HR-3 Hybrid Rheometer (TA Instruments, DE) with a 20 mm diameter parallel plate geometry and a Peltier plate to maintain the sample temperature. Shear thinning experiments were performed by varying the strain rate while maintaining a fixed strain of 20%.
The mechanical properties of an exemplary native ECM-based hydrogel and of cross-linked hydrogels were assessed by rheological measurements. Shear thinning Measurements were conducted at 37° C. Data are presented as mean±SD, n=3. P-values were calculated using a Comparison of Fits test with an Extra Sum of Squares F-test.

[5] = previous studies; cells added after crosslinking; cited from earlier work

## Oxidized sucrose [SOx]
[1]
  hydrogel bulk modulus (linear elastic modulus) with and without exposure to SOx: significant reinforcement of the hydrogel
[2]
  amines of the hydrogel that had reacted with the cross-linker: 46%
[3]
  impact on cell viability: no impact on cell viability
[4]; SOx raised from 0.03% to 0.07%
  gel viscosity, further change when increasing the SOx concentration: smaller increase
[4]; hydrogel cross-linked with 0.03% SOx
  gel viscosity versus control gel: large increase in gel viscosity
[5]
  toxicity when used to cross-link non-cellularized scaffolds: reduced toxicity profile
